From ChEMBL document CHEMBL1158459, “Discovery of a peroxisome proliferator activated receptor gamma (PPARgamma) modulator with balanced PPARalpha activity for the treatment of type 2 diabetes and dyslipidemia” (J Med Chem, 2009)
Active and inactive are the calls of the source. The rule behind the calls is not given here.

Columns and labels:
[1] = Cmax in Syrian golden hamster at 0.3 mg/kg, po once daily for 9 days; type: ADME, organism-based, Mesocricetus auratus; design: dose 0.3 mg/kg, route oral; details: in vivo
Cytochrome P450 2D6 = Cytochrome P450 2D6 (Homo sapiens, UniProt P10635); experiment: Inhibition of CYP2D6; type: ADME
Sequence of Cytochrome P450 2D6 (P10635 whole entry): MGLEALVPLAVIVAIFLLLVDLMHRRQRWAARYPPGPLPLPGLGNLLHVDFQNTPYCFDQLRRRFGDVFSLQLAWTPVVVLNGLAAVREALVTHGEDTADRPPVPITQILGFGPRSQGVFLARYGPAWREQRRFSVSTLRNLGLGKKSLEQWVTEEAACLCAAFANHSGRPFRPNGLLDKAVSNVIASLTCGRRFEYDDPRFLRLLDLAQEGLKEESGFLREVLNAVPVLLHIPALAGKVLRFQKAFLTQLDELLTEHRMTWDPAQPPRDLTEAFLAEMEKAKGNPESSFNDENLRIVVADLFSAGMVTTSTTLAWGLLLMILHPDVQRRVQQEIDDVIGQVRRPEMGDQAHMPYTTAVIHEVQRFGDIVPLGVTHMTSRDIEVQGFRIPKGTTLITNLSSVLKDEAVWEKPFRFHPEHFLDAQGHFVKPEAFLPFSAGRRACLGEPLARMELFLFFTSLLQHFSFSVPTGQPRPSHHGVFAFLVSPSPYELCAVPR

[2] = AUC in Sprague-Dawley rat at 60 mg/kg, po once daily for 14 days; type: ADME, organism-based; design: dose 60 mg/kg, route oral; details: plasma
Syrian golden hamster [3] = experiment: Antidiabetic activity in Syrian golden hamster assessed as reduction in triglyceride level at 3 mg/kg, po once daily for 9 days relative to control; type: functional, Mesocricetus auratus; design: scale not given: the % may be the effect or the level left
Rattus norvegicus [4] = experiment: Antidiabetic activity in Zucker fa/fa rat assessed as decrease in free fatty acid levels at 10 mg/kg, po once daily for 7 days; type: functional, organism-based; design: dose 10 mg/kg
[5] = target: Retinoic acid receptor RXR-alpha (Homo sapiens) (UniProt P19793); experiment: Binding affinity to RXRalpha up to 10 uM
Sequence of Retinoic acid receptor RXR-alpha (Homo sapiens) (P19793 whole entry): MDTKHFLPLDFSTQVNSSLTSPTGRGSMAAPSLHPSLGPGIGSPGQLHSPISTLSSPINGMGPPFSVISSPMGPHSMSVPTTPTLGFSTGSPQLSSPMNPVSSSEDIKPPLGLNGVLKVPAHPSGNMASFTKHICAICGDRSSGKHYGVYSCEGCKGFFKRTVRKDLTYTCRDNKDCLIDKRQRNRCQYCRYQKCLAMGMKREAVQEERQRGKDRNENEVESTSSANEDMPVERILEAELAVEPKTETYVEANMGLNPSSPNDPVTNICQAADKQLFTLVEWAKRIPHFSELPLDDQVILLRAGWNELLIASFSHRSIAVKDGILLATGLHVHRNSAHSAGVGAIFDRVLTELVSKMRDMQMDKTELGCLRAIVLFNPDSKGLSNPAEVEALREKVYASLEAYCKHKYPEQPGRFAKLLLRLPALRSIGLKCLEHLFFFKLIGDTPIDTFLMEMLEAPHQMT

Mus musculus [6] = experiment: Antidiabetic activity in ob/ob mouse assessed as insulin correction at 10 mg/kg, po once daily for 5 days relative to control; type: functional
[7] = target: Glucocorticoid receptor (Homo sapiens) (UniProt P04150); experiment: Activity at GR receptor up to 10 uM by transactivation assay
Sequence of Glucocorticoid receptor (Homo sapiens) (P04150 whole entry): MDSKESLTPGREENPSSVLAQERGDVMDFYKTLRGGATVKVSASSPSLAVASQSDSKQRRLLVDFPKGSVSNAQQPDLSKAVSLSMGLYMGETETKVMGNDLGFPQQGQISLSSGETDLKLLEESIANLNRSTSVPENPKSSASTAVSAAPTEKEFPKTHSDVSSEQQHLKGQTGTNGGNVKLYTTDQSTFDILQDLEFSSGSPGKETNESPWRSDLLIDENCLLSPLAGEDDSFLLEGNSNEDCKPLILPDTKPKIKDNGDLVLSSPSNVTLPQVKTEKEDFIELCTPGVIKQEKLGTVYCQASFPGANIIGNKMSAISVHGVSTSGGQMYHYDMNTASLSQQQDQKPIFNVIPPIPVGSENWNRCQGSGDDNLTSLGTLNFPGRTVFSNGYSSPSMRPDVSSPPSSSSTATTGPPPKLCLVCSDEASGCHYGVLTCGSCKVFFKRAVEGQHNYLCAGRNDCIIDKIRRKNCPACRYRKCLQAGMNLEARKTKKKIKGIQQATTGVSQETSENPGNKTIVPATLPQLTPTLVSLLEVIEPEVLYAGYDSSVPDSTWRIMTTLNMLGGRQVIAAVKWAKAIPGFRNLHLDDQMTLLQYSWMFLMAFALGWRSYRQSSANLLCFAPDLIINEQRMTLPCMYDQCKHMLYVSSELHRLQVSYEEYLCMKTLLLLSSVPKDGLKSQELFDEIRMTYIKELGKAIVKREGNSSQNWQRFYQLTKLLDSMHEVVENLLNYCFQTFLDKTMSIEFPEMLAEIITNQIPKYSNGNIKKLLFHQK

[8] = target: Oxysterols receptor LXR-beta (Homo sapiens) (UniProt P55055); experiment: Activity at LXRbeta receptor up to 10 uM by transactivation assay
Sequence of Oxysterols receptor LXR-beta (Homo sapiens) (P55055 whole entry): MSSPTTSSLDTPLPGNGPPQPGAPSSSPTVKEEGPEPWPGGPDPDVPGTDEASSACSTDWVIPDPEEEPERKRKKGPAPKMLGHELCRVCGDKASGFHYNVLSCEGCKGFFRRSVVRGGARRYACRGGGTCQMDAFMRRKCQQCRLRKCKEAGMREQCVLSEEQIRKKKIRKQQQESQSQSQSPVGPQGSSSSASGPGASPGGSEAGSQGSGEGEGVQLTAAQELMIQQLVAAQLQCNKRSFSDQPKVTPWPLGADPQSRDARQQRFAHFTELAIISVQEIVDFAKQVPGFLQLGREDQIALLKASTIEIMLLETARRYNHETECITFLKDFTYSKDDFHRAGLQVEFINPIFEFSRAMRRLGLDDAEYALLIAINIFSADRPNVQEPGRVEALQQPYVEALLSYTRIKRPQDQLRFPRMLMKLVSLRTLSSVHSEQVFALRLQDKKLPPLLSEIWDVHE

[9] = target: Peroxisome proliferator-activated receptor alpha (Canis lupus familiaris, UniProt Q95N78); experiment: Agonist activity at dog PPARalpha receptor; type: functional
Sequence of Peroxisome proliferator-activated receptor alpha (Canis lupus familiaris, UniProt Q95N78) (Q95N78 whole entry): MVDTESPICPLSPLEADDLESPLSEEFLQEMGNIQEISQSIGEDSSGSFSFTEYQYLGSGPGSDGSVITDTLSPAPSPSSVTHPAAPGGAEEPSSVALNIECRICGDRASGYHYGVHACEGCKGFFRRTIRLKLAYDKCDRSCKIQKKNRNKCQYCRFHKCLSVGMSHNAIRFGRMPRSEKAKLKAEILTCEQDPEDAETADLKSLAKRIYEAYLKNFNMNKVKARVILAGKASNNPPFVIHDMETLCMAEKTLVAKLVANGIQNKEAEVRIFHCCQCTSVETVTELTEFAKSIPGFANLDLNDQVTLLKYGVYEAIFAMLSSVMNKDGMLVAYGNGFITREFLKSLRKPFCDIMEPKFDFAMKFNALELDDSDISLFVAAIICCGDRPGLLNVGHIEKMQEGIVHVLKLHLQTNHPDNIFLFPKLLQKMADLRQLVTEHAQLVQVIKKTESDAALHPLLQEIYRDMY

[10] = AUC in rat at 2 mg/kg, po; type: ADME, organism-based, Plasma; design: dose 2 mg/kg, route oral; details: plasma
Mus musculus [11] = experiment: Antidiabetic activity in ob/ob mouse assessed as insulin correction at 3 mg/kg, po once daily for 5 days relative to control; type: functional
[12] = target: T1, Peroxisome proliferator-activated receptor gamma (Homo sapiens, UniProt P37231)
T1 sequence (P37231 whole entry): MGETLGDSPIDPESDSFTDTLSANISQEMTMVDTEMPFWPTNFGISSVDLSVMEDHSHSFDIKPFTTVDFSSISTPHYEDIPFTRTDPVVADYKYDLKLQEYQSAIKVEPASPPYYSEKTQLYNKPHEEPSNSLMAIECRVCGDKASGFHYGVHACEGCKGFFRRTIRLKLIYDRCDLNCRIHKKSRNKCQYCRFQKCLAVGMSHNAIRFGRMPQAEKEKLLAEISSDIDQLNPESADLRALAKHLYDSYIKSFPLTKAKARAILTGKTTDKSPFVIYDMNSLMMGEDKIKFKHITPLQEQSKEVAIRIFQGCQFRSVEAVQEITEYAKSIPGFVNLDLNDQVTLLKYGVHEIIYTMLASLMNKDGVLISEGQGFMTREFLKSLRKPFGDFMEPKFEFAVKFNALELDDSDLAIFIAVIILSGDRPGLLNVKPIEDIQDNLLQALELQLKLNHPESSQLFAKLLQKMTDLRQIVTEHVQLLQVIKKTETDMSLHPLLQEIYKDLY
Description: Agonist activity at human PPARgamma receptor expressed in african green monkey COS1 cells co-transfected with fused yeast Gal4-DBD by transactivation assay

Syrian golden hamster [13] = experiment: Antidiabetic activity in Syrian golden hamster assessed as reduction in cholesterol level at 1 mg/kg, po once daily for 9 days relative to control; type: functional, Mesocricetus auratus; design: scale not given: the % may be the effect or the level left
[14] = AUC in Beagle dog at 1 mg/kg, po once daily for 14 days; type: ADME, organism-based, Canis lupus familiaris; design: dose 1 mg/kg, route oral; details: plasma
Rattus norvegicus [15] = experiment: Toxicity in Sprague-Dawley rat assessed as hematocrit at 60 mg/kg, po once daily for 14 days; type: organism-based; design: dose 60 mg/kg, route oral; details: in vivo, 336 h
Rattus norvegicus [16] = experiment: Antidiabetic activity in po dosed Zucker fa/fa rat assessed as insulin lowering activity treated once daily for 7 days; type: functional
[17] = AUC in Syrian golden hamster at 3 mg/kg, po once daily for 9 days; type: ADME, organism-based, Mesocricetus auratus; design: dose 3 mg/kg, route oral; details: plasma
Rattus norvegicus [18] = experiment: Toxicity in Zucker fa/fa rat assessed as increase in heart weight at 10 mg/kg, po treated once daily for 7 days; type: organism-based; design: dose 10 mg/kg, route oral; details: in vivo, 168 h
[19] = Cmax in Syrian golden hamster at 3 mg/kg, po once daily for 9 days; type: ADME, organism-based, Mesocricetus auratus; design: dose 3 mg/kg, route oral; details: in vivo
[20] = target: Oxysterols receptor LXR-alpha (Homo sapiens) (UniProt Q13133); experiment: Activity at LXRalpha receptor up to 10 uM by transactivation assay
Sequence of Oxysterols receptor LXR-alpha (Homo sapiens) (Q13133 whole entry): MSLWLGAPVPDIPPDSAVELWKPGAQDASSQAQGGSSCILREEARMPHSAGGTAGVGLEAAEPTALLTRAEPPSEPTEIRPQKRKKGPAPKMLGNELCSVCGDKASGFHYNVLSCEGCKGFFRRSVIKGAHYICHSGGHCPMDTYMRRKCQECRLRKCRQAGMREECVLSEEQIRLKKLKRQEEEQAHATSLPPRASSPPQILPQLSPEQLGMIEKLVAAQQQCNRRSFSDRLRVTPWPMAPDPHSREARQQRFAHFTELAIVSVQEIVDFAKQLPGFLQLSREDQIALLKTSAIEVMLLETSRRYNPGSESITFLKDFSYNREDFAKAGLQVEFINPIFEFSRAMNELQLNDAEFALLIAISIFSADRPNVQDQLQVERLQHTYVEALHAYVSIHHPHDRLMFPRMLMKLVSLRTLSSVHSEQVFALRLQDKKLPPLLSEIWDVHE

[21] = AUC in C57BLKS/J-m+/+Leprdb db/db mouse at 1 mg/kg, po once daily for 11 days; type: ADME, organism-based; design: dose 1 mg/kg, route oral; details: plasma
Rattus norvegicus [22] = experiment: Antidiabetic activity in Zucker fa/fa rat assessed as decrease in triglyceride levels at 100 mg/kg, po once daily for 7 days; type: functional, organism-based; design: dose 100 mg/kg
Rattus norvegicus [23] = experiment: Antidiabetic activity in Zucker fa/fa rat assessed as decrease in free fatty acid levels at 1 mg/kg, po once daily for 7 days; type: functional, organism-based; design: dose 1 mg/kg
[24] = target: T2, Peroxisome proliferator-activated receptor alpha (Homo sapiens, UniProt Q07869); type: functional, cell-based, COS-1
T2 sequence (Q07869 whole entry): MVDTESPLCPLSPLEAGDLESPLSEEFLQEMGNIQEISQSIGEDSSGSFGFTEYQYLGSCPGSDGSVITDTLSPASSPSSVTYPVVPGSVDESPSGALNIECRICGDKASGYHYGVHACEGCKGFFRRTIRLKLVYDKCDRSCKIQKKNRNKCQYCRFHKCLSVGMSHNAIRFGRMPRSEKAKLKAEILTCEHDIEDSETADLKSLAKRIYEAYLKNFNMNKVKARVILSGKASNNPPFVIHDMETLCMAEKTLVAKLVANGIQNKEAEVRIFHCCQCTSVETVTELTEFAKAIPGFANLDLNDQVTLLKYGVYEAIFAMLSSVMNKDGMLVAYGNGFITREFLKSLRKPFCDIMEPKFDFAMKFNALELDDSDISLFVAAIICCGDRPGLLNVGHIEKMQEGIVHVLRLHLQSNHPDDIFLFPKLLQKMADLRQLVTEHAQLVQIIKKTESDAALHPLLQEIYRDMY
Description: Agonist activity at human PPARalpha receptor expressed in african green monkey COS1 cells co-transfected with fused yeast Gal4-DBD by transactivation assay

[25] = target: Thyroid hormone receptor alpha (Homo sapiens) (UniProt P10827); experiment: Binding affinity to TRalpha up to 10 uM
Sequence of Thyroid hormone receptor alpha (Homo sapiens) (P10827 whole entry): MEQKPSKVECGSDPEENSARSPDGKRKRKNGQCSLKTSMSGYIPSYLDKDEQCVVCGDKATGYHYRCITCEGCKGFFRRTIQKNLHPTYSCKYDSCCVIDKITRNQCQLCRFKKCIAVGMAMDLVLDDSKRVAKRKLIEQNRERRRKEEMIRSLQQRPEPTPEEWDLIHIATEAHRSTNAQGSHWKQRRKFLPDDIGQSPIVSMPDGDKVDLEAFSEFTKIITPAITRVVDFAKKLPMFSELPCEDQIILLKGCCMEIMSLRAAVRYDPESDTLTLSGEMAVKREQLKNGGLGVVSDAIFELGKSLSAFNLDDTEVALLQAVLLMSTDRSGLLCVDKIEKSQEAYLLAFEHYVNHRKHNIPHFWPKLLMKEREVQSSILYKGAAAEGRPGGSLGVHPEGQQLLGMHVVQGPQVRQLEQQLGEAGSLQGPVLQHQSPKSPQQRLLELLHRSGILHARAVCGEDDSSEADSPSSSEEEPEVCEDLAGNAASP

Rattus norvegicus [26] = experiment: Toxicity in Sprague-Dawley rat assessed as increase in brown adipose tissue weight at 60 mg/kg, po once daily for 14 days; type: organism-based; design: dose 60 mg/kg, route oral; details: in vivo, 336 h
[27] = target: Thyroid hormone receptor beta (Homo sapiens) (UniProt P10828); experiment: Binding affinity to TRbeta up to 10 uM
Sequence of Thyroid hormone receptor beta (Homo sapiens) (P10828 whole entry): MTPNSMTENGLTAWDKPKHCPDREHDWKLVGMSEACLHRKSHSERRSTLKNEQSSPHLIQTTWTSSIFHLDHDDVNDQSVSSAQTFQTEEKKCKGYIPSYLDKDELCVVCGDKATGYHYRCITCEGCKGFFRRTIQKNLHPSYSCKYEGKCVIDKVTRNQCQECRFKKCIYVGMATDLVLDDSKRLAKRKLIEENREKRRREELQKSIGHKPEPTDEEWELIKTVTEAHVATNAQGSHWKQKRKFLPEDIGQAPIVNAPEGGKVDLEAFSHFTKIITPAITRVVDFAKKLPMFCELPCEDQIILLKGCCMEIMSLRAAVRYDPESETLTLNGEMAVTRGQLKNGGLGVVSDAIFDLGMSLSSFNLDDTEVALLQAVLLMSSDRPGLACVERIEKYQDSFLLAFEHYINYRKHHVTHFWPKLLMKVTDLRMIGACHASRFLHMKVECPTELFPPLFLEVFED

[28] = AUC in Syrian golden hamster at 0.3 mg/kg, po once daily for 9 days; type: ADME, organism-based, Mesocricetus auratus; design: dose 0.3 mg/kg, route oral; details: plasma
Mus musculus [29] = experiment: Antidiabetic activity in C57BLKS/J-m+/+Leprdb db/db mouse assessed as reduction in plasma glucose levels at 1 mg/kg, po once daily for 11 days relative to control; type: functional; design: scale not given: the % may be the effect or the level left
Rattus norvegicus [30] = experiment: Toxicity in Sprague-Dawley rat assessed as increase in liver weight at 60 mg/kg, po once daily for 14 days; type: organism-based; design: dose 60 mg/kg, route oral; details: in vivo, 336 h

CC[C@@H](Oc1cccc(Cn2c(C)c(C(=O)c3ccc(Cl)cc3)c3ccc(OC(F)(F)F)cc32)c1)C(=O)O
Cmax [1]: 20 nM
IC50 (Cytochrome P450 2D6): 7000 nM
AUC at 336 h [2]: 40 µM·h
Activity (Syrian golden hamster [3]): 56.9%
Activity (Rattus norvegicus [4]): Active
Activity [5]: inactive
Activity (Mus musculus [6]): 89%
Activity [7]: inactive
Activity [8]: inactive
EC50 [9]: 0.55 nM
AUC [10]: 1.5 µM·h
Activity (Mus musculus [11]): 67%
EC50 [12]: 2 nM
Activity (Syrian golden hamster [13]): 33.9%
AUC at 336 h [14]: 5.41 µM·h
Activity (Rattus norvegicus [15]): -8%
ED50 (Rattus norvegicus [16]): 10 µM·h
AUC at 216 h [17]: 2.11 µM·h
Activity (Rattus norvegicus [18]): Toxic
Cmax [19]: 600 nM
Activity [20]: inactive
AUC at 264 h [21]: 1.9 µM·h
Activity (Rattus norvegicus [22]): Active
Activity (Rattus norvegicus [23]): Active
EC50 [24]: 230 nM
Activity [25]: inactive
Activity (Rattus norvegicus [26]): 32%
Activity [27]: inactive
AUC at 216 h [28]: 0.13 µM·h
Activity (Mus musculus [29]): 78%
Activity (Rattus norvegicus [30]): 127%
